Assay results taken from patent US20240228488A1 (TAKEDA PHARMACEUTICAL COMPANY LIMITED, priority 2021, published 2024).

Legend:
[1] = biological target: human activated kallikrein enzyme (Homo sapiens, UniProt P03952); assay: Plasma kallikrein inhibition, fluorogenic PFR-AMC substrate, 500 pM activated kallikrein format; format: biochemical; conditions: 500 pM activated kallikrein, 300 uM PFR-AMC, 30 min preincubation, 10 min reaction; read-out: Primary Dose Response Assay: Average EC50
Method in brief: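 500 pM enz + cpd, 30 min RT preinc; start w/ PFR-AMC 300 uM; 10 min RT; Ex380/Em460. Buffer: Tris 20 mM pH 7.5, EDTA 1 mM, NaCl 150 mM, PEG-400 0.1%, Triton 0.1%. EC50.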

plasma kallikrein = biological target: T1, plasma kallikrein (Homo sapiens, UniProt P03952); assay: Neat human plasma assay, FXIIa contact pathway-activated, PFR-AMC substrate; format: biochemical; conditions: citrated human plasma 78% final, 10 nM human FXIIa, 100 μM PFR-AMC; read-out: Human Plasma Assay: IC90
T1 construct: from tissue
Method in brief: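 Citrated human plasma (78% final) with compound, contact-activated by 10 nM human FXIIa in pKal buffer pH 7.5, with 100 μM PFR-AMC. Fluorescence (360/480 nm) followed 5 min at room temperature; rates versus concentration fitted by 4-parameter equation for IC50/IC90.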

human activated kallikrein enzyme, sequence (P03952 391-638 limits assumed): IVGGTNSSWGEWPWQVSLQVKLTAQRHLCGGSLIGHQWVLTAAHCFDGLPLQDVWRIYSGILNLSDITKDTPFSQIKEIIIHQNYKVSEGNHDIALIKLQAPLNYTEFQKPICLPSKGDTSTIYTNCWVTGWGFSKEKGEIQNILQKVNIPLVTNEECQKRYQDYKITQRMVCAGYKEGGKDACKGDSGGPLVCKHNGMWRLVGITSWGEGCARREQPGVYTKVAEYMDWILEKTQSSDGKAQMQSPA
human activated kallikrein enzyme, sequence (P03952 20-390 partner limits assumed): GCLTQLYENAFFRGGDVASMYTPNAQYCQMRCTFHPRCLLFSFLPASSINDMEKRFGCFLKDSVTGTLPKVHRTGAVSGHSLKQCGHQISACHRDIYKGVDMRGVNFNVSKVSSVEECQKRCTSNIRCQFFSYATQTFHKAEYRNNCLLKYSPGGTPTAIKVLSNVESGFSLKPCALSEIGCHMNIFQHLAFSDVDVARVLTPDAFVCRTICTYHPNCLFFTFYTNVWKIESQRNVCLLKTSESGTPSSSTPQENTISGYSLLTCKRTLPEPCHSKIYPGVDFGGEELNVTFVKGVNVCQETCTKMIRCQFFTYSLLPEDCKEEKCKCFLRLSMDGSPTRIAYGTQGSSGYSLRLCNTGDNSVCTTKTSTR
T1 sequence (P03952 391-638 limits assumed): as the sequence (P03952 391-638 limits assumed) above
T1 sequence (P03952 20-390 partner limits assumed): as the sequence (P03952 20-390 partner limits assumed) above

Compound | EC50 [1] [nM] | IC90 (plasma kallikrein) [nM]
CC(C)c1ccc2nc(CNc3ccnc(NC(=O)[C@H]4C[C@@H]4c4cccc(Cl)c4)c3)cn2c1 [Example 123, (1S,2S)-2-(3-chlorophenyl)-N-(4-(((6-isopropylimidazo[1,2-a]pyridin-2-yl)methyl)amino)pyridin-2-yl)cyclopropane-1-carboxamide] | < 1 | 10000 to 48000
Cc1ccnc([C@H]2C[C@@H]2C(=O)Nc2cc(NCc3cn4cc(C5CC5)cc(N5CC6(COC6)OC5=O)c4n3)ncn2)n1 [Example 372, (1S,2S)-N-(6-(((6-cyclopropyl-8-(6-oxo-2,5-dioxa-7-azaspiro[3.4]octan-7-yl)imidazo[1,2-a]pyridin-2-yl)methyl)amino)pyrimidin-4-yl)-2-(4-methylpyrimidin-2-yl)cyclopropane-1-carboxamide] | < 1 | < 400
Cc1ccc(F)c([C@H]2C[C@@H]2C(=O)Nc2cc(NCc3cn4cc(C5CC5)cc(N5CC(=O)N(C)C5=O)c4n3)ncn2)n1 (racemic) [Example 502, rac-(1S*,2S*)-N-(6-(((6-cyclopropyl-8-(3-methyl-2,4-dioxoimidazolidin-1-yl)imidazo[1,2-a]pyridin-2-yl)methyl)amino)pyrimidin-4-yl)-2-(3-fluoro-6-methylpyridin-2-yl)cyclopropane-1-carboxamide] | < 1 | 400 to 1500
CN1CN(c2cc(C3CC3)cn3cc(CNc4cc(NC(=O)[C@H]5C[C@@H]5c5cccc(Cl)c5)ncn4)nc23)CC1=O [Example I-9, (1S,2S)-2-(3-chlorophenyl)-N-(6-(((6-cyclopropyl-8-(3-methyl-4-oxoimidazolidin-1-yl)imidazo[1,2-a]pyridin-2-yl)methyl)amino)pyrimidin-4-yl)cyclopropane-1-carboxamide] | 1 to 10 | 1500 to 10000
O=C(Nc1cc(NCc2cn3cc(C4CC4)cc(N4CC(=O)N(CCO)C4=O)c3n2)ncn1)[C@H]1C[C@@H]1c1cccc(Cl)c1 [Example 463, (1S,2S)-2-(3-chlorophenyl)-N-(6-(((6-cyclopropyl-8-(3-(2-hydroxyethyl)-2,4-dioxoimidazolidin-1-yl)imidazo[1,2-a]pyridin-2-yl)methyl)amino)pyrimidin-4-yl)cyclopropane-1-carboxamide] | < 1 | 400 to 1500
COc1cc(N2CC(=O)N(C)C2=O)c2nc([C@@H](C)Nc3cc(NC(=O)[C@H]4C[C@@H]4c4nccc(C)n4)ncn3)cn2c1 [Example 415, (1S,2S)-N-(6-(((R)-1-(6-methoxy-8-(3-methyl-2,4-dioxoimidazolidin-1-yl)imidazo[1,2-a]pyridin-2-yl)ethyl)amino)pyrimidin-4-yl)-2-(4-methylpyrimidin-2-yl)cyclopropane-1-carboxamide] | < 1 | < 400
Cc1ccnc([C@H]2C[C@@H]2C(=O)Nc2ncc(F)c(NCc3cn4cc(C5CC5)cc(N5CC(=O)N(C)C5=O)c4n3)n2)n1 (racemic) [Example 517, rac-(1S*,2S*)-N-(4-(((6-cyclopropyl-8-(3-methyl-2,4-dioxoimidazolidin-1-yl)imidazo[1,2-a]pyridin-2-yl)methyl)amino)-5-fluoropyrimidin-2-yl)-2-(4-methylpyrimidin-2-yl)cyclopropane-1-carboxamide] | < 1 | < 400
O=C(Nc1cc(NCc2cn3cc(C4CC4)cc(N4CCNC(C(F)(F)F)C4)c3n2)ccn1)[C@H]1C[C@@H]1c1cccc(Cl)c1 (stereo partly drawn) [Example I-21, (1S,2S)-2-(3-chlorophenyl)-N-(4-(((6-cyclopropyl-8-(3-(trifluoromethyl)piperazin-1-yl)imidazo[1,2-a]pyridin-2-yl)methyl)amino)pyridin-2-yl)cyclopropane-1-carboxamide] | 1 to 10 | 1500 to 10000
O=C(Nc1cc(NCc2cn3cc(C4CC4)cc(N4CC5(C4)CN(C4CC4)C5)c3n2)ccn1)[C@H]1C[C@@H]1c1cccc(Cl)c1 [Example I-24, (1S,2S)-2-(3-chlorophenyl)-N-(4-(((6-cyclopropyl-8-(6-cyclopropyl-2,6-diazaspiro[3.3]heptan-2-yl)imidazo[1,2-a]pyridin-2-yl)methyl)amino)pyridin-2-yl)cyclopropane-1-carboxamide] | < 1 | 1500 to 10000
O=C(Nc1cc(NCc2cn3cc(C4CC4)cc(C4(F)CNC4)c3n2)ccn1)[C@H]1C[C@@H]1c1cccc(Cl)c1 [Example 133, (1S,2S)-2-(3-chlorophenyl)-N-(4-(((6-cyclopropyl-8-(3-fluoroazetidin-3-yl)imidazo[1,2-a]pyridin-2-yl)methyl)amino)pyridin-2-yl)cyclopropane-1-carboxamide] | < 1 | 400 to 1500
O=C1CN(c2cc(C3CC3)cn3cc(CNc4ccnc(NC(=O)[C@H]5C[C@@H]5c5cc(Cl)ccn5)n4)nc23)C(=O)N1 (racemic) [Example 521, rac-(1S*,2S*)-2-(4-chloropyridin-2-yl)-N-(4-(((6-cyclopropyl-8-(2,4-dioxoimidazolidin-1-yl)imidazo[1,2-a]pyridin-2-yl)methyl)amino)pyrimidin-2-yl)cyclopropane-1-carboxamide] | < 1 | 400 to 1500

Continued, values first:

EC50 [1] [nM] | IC90 (plasma kallikrein) [nM] | Compound
< 1 | < 400 | CN1CCC(F)(c2cc(C3CC3)cn3cc(CNc4ccnc(NC(=O)[C@H]5C[C@@H]5c5cccc(Cl)c5)c4)nc23)CC1 [Example I-229, (1S,2S)-2-(3-chlorophenyl)-N-(4-(((6-cyclopropyl-8-(4-fluoro-1-methylpiperidin-4-yl)imidazo[1,2-a]pyridin-2-yl)methyl)amino)pyridin-2-yl)cyclopropane-1-carboxamide]
1 to 10 | 1500 to 10000 | CC(=O)Nc1cc(C2CC2)cn2cc(CNc3cc(NC(=O)[C@H]4C[C@@H]4c4cccc(Cl)c4)ncn3)nc12 [Example 275, (1S,2S)—N-(6-(((8-acetamido-6-cyclopropylimidazo[1,2-a]pyridin-2-yl)methyl)amino)pyrimidin-4-yl)-2-(3-chlorophenyl)cyclopropane-1-carboxamide]
< 1 | < 400 | CN1CC(c2cc(C3CC3)cn3cc(CNc4cc(NC(=O)[C@H]5C[C@@H]5c5cccc(Cl)c5)ncn4)nc23)C1 [Example I-193, (1S,2S)-2-(3-chlorophenyl)-N-(6-(((6-cyclopropyl-8-(1-methylazetidin-3-yl)imidazo[1,2-a]pyridin-2-yl)methyl)amino)pyrimidin-4-yl)cyclopropane-1-carboxamide]
< 1 | 400 to 1500 | CN1CCN(c2cc(C3CC3)cn3cc(CNc4cc(NC(=O)[C@H]5C[C@@H]5c5cccc(Cl)c5)ncn4)nc23)CC1 [Example I-2, (1S,2S)-2-(3-chlorophenyl)-N-(6-(((6-cyclopropyl-8-(4-methylpiperazin-1-yl)imidazo[1,2-a]pyridin-2-yl)methyl)amino)pyrimidin-4-yl)cyclopropane-1-carboxamide]
< 1 | < 400 | Cc1ccnc([C@H]2C[C@@H]2C(=O)Nc2cc(N[C@H](C)c3cn4cc(C5CC5)cc(N5CCCC5=O)c4n3)ncn2)n1 [Example 418, (1S,2S)-N-(6-(((R)-1-(6-cyclopropyl-8-(2-oxopyrrolidin-1-yl)imidazo[1,2-a]pyridin-2-yl)ethyl)amino)pyrimidin-4-yl)-2-(4-methylpyrimidin-2-yl)cyclopropane-1-carboxamide]
1 to 10 | 1500 to 10000 | CC(=O)c1cc(C2CC2)cn2cc(CNc3cc(NC(=O)[C@H]4C[C@@H]4c4cccc(Cl)c4)ncn3)nc12 [Example I-207, (1S,2S)-N-(6-(((8-acetyl-6-cyclopropylimidazo[1,2-a]pyridin-2-yl)methyl)amino)pyrimidin-4-yl)-2-(3-chlorophenyl)cyclopropane-1-carboxamide]
< 1 | < 400 | Cc1ccnc([C@H]2C[C@@H]2C(=O)Nc2cc(NCc3cn4cc(C5CC5)cc(N5CC(=O)N(C6CC6)C5=O)c4n3)ncn2)n1 [Example 384, (1S,2S)-N-(6-(((6-cyclopropyl-8-(3-cyclopropyl-2,4-dioxoimidazolidin-1-yl)imidazo[1,2-a]pyridin-2-yl)methyl)amino)pyrimidin-4-yl)-2-(4-methylpyrimidin-2-yl)cyclopropane-1-carboxamide]
1 to 10 | 400 to 1500 | O=C(Nc1cc(NCc2cn3cc(C4CC4)cc(N4C[C@@H]5C[C@@H]5C4=O)c3n2)ncn1)[C@H]1C[C@@H]1c1cccc(Cl)c1 (racemic) [Example 457, rac-(1S,2S)-2-(3-chlorophenyl)-N-(6-(((6-cyclopropyl-8-((1R*,5S*)-2-oxo-3-azabicyclo[3.1.0]hexan-3-yl)imidazo[1,2-a]pyridin-2-yl)methyl)amino)pyrimidin-4-yl)cyclopropane-1-carboxamide]
< 1 | 1500 to 10000 | CN1C(=O)CCN(c2cc(C3CC3)cn3cc(CNc4cc(NC(=O)[C@H]5C[C@@H]5c5cccc(Cl)c5)ncn4)nc23)C1=O [Example I-194, (1S,2S)-2-(3-chlorophenyl)-N-(6-(((6-cyclopropyl-8-(3-methyl-2,4-dioxotetrahydropyrimidin-1(2H)-yl)imidazo[1,2-a]pyridin-2-yl)methyl)amino)pyrimidin-4-yl)cyclopropane-1-carboxamide]
< 1 | 400 to 1500 | Cc1ccnc([C@H]2C[C@@H]2C(=O)Nc2cc(N[C@H](C)c3cn4cc(C5(F)CC5)cc(N5CC(=O)N(C)C5=O)c4n3)ncn2)n1 [Example 424, (1S,2S)-N-(6-(((R)-1-(6-(1-fluorocyclopropyl)-8-(3-methyl-2,4-dioxoimidazolidin-1-yl)imidazo[1,2-a]pyridin-2-yl)ethyl)amino)pyrimidin-4-yl)-2-(4-methylpyrimidin-2-yl)cyclopropane-1-carboxamide]
